The source of these data is ChEMBL document CHEMBL1144957, “Highly cytotoxic benzo[c]pyrido[2,3,4-kl]acridines” (Bioorg Med Chem Lett, 2003).

As a reminder, the ΔTm is the change in melting temperature against a reference sample. By IC50 is commonly meant the midpoint of a concentration-inhibition curve. Low values mean greater potency, high ones weaker potency.

SMILES strings stand for the structures.

In one test the test system is Nucleic Acid. In words: Binding to DNA as change in thermal denaturation temperature of poly(dAT)2 DNA. It counts as nucleic-acid assay.
Settings: not given
Turning to `COc1cc2nc3c(c4c2c(c1OC)N(C(=O)CN1CCN(C)CC1)CC4)CCc1cc(OCCN)ccc1-3`, the ΔTm stood at 11.9 °C.

As for `COc1ccc2c(c1)CCc1c-2nc2cc(OC)c(OC)c3c2c1CCN3C(=O)CN1CCN(C)CC1`, the shift in melting temperature (ΔTm) is 0.9 °C.

Regarding `COc1ccc2c(c1)-c1nc3cc(OC)c(OC)c4c3c(c1CC2)CCN4C(=O)CN1CCN(C)CC1`, the shift in melting temperature (ΔTm) is 0.9 °C.

Regarding `COc1cc2nc3c(c4c2c(c1OC)N(C(=O)CN1CCN(C)CC1)CC4)CCc1cc(OCCCN)ccc1-3`, the thermal shift (ΔTm) came to 11.9 °C.

As for `COc1cc2nc3c(c4c2c(c1OC)N(C(C)=O)CC4)CCc1cc(OCCN)ccc1-3`, the thermal shift (ΔTm) was 2.1 °C.

Turning to `COc1ccc2c(c1)CCc1c-2nc2cc(OC)c(OC)c3c2c1CCN3`, the ΔTm stood at 0 °C.

For the compound `COc1cc2nc3c(c4c2c(c1OC)N(C(=O)CN1CCN(C)CC1)CC4)CCc1cc(OCCCN2CCN(C)CC2)ccc1-3`, the thermal shift (ΔTm) was found to be 0.9 °C.

On to `COc1cc2nc3c(c4c2c(c1OC)N(C(=O)CN1CCN(C)CC1)CC4)CCc1ccccc1-3`, for which the ΔTm stood at 0 °C.

As to `COc1cc2nc3c(c4c2c(c1OC)NCC4)CCc1ccccc1-3`, the ΔTm came out at 0 °C.

As to `COc1cc2nc3c(c4c2c(c1OC)NCC4)CCc1cc(OCCCN2CCN(C)CC2)ccc1-3`, the shift in melting temperature (ΔTm) turned out to be 7.5 °C.

Turning to `COc1cc2nc3c(c4c2c(c1OC)NCC4)CCc1cc(OCCN)ccc1-3`, the ΔTm came out at 12.1 °C.

Consider `COc1cc2nc3c(c4c2c(c1OC)N(C(C)=O)CC4)CCc1cc(OCCCN)ccc1-3`, for which the ΔTm amounted to 3.1 °C.

For the compound `COc1cc2nc3c(c4c2c(c1OC)N(C(C)=O)CC4)CCc1cc(OCCCN2CCN(C)CC2)ccc1-3`, the shift in melting temperature (ΔTm) came out at 0.9 °C.

With `COc1cc2nc3c(c4c2c(c1OC)NCC4)CCc1cc(O)ccc1-3`, the ΔTm turned out to be 1.1 °C.

With `COc1cc2nc3c(c4c2c(c1OC)NCC4)CCc1cc(OCCCN)ccc1-3`, the ΔTm is 11.9 °C.

For the compound `COc1ccc2c(c1)-c1nc3cc(OC)c(OC)c4c3c(c1CC2)CCN4`, the shift in melting temperature (ΔTm) amounted to 0 °C.

A further test deals with Calf thymus DNA. In words: Apparent Calf thymus DNA DNA-binding constant. It counts as nucleic-acid assay. The note with it: Bos taurus.
Consider `COc1cc2nc3c(c4c2c(c1OC)N(C(C)=O)CC4)CCc1cc(OCCCN2CCN(C)CC2)ccc1-3`, for which the K app was determined as 2800 M⁻¹.

The subject of a further test is Calf thymus DNA. In words: Apparent calf thymus DNA-binding constant. Particulars: Bos taurus. It is filed as nucleic-acid assay.
For `COc1cc2nc3c(c4c2c(c1OC)N(C(=O)CN1CCN(C)CC1)CC4)CCc1cc(OCCN)ccc1-3`, the K app is 4.51e+06 M⁻¹.

For the compound `COc1ccc2c(c1)CCc1c-2nc2cc(OC)c(OC)c3c2c1CCN3C(=O)CN1CCN(C)CC1`, the K app was < 50000 M⁻¹.

For the compound `COc1ccc2c(c1)-c1nc3cc(OC)c(OC)c4c3c(c1CC2)CCN4C(=O)CN1CCN(C)CC1`, the K app is < 50000 M⁻¹.

Consider `COc1cc2nc3c(c4c2c(c1OC)N(C(=O)CN1CCN(C)CC1)CC4)CCc1cc(OCCCN)ccc1-3`, for which the K app was found to be 6.66e+06 M⁻¹.

As to `COc1cc2nc3c(c4c2c(c1OC)N(C(C)=O)CC4)CCc1cc(OCCN)ccc1-3`, the K app amounted to 4200 M⁻¹.

`COc1ccc2c(c1)CCc1c-2nc2cc(OC)c(OC)c3c2c1CCN3`: the K app worked out at 3000 M⁻¹.

Take `COc1cc2nc3c(c4c2c(c1OC)N(C(=O)CN1CCN(C)CC1)CC4)CCc1cc(OCCCN2CCN(C)CC2)ccc1-3`: the K app is 3.04e+06 M⁻¹.

As to `COc1cc2nc3c(c4c2c(c1OC)N(C(=O)CN1CCN(C)CC1)CC4)CCc1ccccc1-3`, the K app is < 50000 M⁻¹.

For `COc1cc2nc3c(c4c2c(c1OC)NCC4)CCc1ccccc1-3`, the K app came out at 3600 M⁻¹.

For `COc1cc2nc3c(c4c2c(c1OC)NCC4)CCc1cc(OCCCN2CCN(C)CC2)ccc1-3`, the K app came out at 4.98e+06 M⁻¹.

In the case of `COc1cc2nc3c(c4c2c(c1OC)NCC4)CCc1cc(OCCN)ccc1-3`, the K app was 2.01e+06 M⁻¹.

For `COc1cc2nc3c(c4c2c(c1OC)N(C(C)=O)CC4)CCc1cc(OCCCN)ccc1-3`, the K app amounted to 6300 M⁻¹.

Consider `COc1cc2nc3c(c4c2c(c1OC)NCC4)CCc1cc(O)ccc1-3`, for which the K app amounted to 1600 M⁻¹.

As for `COc1cc2nc3c(c4c2c(c1OC)NCC4)CCc1cc(OCCCN)ccc1-3`, the K app was 6.86e+06 M⁻¹.

As for `COc1ccc2c(c1)-c1nc3cc(OC)c(OC)c4c3c(c1CC2)CCN4`, the K app amounted to 2400 M⁻¹.

For another test, the system named is PC-3. In words: In vitro inhibitory concentration against human prostate carcinoma PC-3 cell line using MTT assay after incubation for 72 h. It is filed as functional, cell-based. The note with it: PC-3, 72 h.
`COc1cc2nc3c(c4c2c(c1OC)N(C(=O)CN1CCN(C)CC1)CC4)CCc1cc(OCCN)ccc1-3`: the half-inhibitory concentration (IC50) was > 1 µM.

As to `COc1ccc2c(c1)CCc1c-2nc2cc(OC)c(OC)c3c2c1CCN3C(C)=O`, the IC50 was > 1 µM.

Consider `COc1ccc2c(c1)CCc1c-2nc2cc(OC)c(OC)c3c2c1CCN3C(=O)CN1CCN(C)CC1`, for which the IC50 is > 1 µM.

Take `COc1cc2nc3c(c4c2c(c1OC)N(C(C)=O)CC4)CCc1cc(O)ccc1-3`: the IC50 is > 1 µM.

Consider `COc1ccc2c(c1)-c1nc3cc(OC)c(OC)c4c3c(c1CC2)CCN4C(=O)CN1CCN(C)CC1`, for which the IC50 was > 1 µM.

The compound `COc1cc2nc3c(c4c2c(c1OC)N(C(=O)CN1CCN(C)CC1)CC4)CCc1cc(OCCCN)ccc1-3` yielded an IC50 of 0.0051 µM. In other words, the single-digit nanomolar range.

As to `COc1cc2nc3c(c4c2c(c1OC)N(C(C)=O)CC4)CCc1cc(OCCN)ccc1-3`, the IC50 was > 1 µM.

`COc1ccc2c(c1)CCc1c-2nc2cc(OC)c(OC)c3c2c1CCN3`: the IC50 is > 1 µM.

Turning to `COc1cc2nc3c(c4c2c(c1OC)N(C(=O)CN1CCN(C)CC1)CC4)CCc1cc(OCCCN2CCN(C)CC2)ccc1-3`, the 50% inhibitory concentration (IC50) is > 1 µM.

Take `COc1cc2nc3c(c4c2c(c1OC)N(C(=O)CN1CCN(C)CC1)CC4)CCc1ccccc1-3`: the half-inhibitory concentration (IC50) was > 1 µM.

For the compound `COc1cc2nc3c(c4c2c(c1OC)NCC4)CCc1ccccc1-3`, the 50% inhibitory concentration (IC50) is > 1 µM.

Turning to `COc1cc2nc3c(c4c2c(c1OC)NCC4)CCc1cc(OCCCN2CCN(C)CC2)ccc1-3`, the IC50 is 0.0199 µM.

Regarding `COc1cc2nc3c(c4c2c(c1OC)NCC4)CCc1cc(OCCN)ccc1-3`, the IC50 is > 1 µM.

As to `COc1cc2nc3c(c4c2c(c1OC)N(C(C)=O)CC4)CCc1cc(OCCCN)ccc1-3`, the concentration for half-maximal inhibition (IC50) is > 1 µM.

Take `COc1ccc2c(c1)-c1nc3cc(OC)c(OC)c4c3c(c1CC2)CCN4C(C)=O`: the IC50 was > 1 µM.

`COc1cc2nc3c(c4c2c(c1OC)N(C(C)=O)CC4)CCc1cc(OCCCN2CCN(C)CC2)ccc1-3`: half-maximal inhibition (IC50) required 0.0112 µM.

With `COc1cc2nc3c(c4c2c(c1OC)NCC4)CCc1cc(O)ccc1-3`, the IC50 is > 1 µM.

As to `COc1cc2nc3c(c4c2c(c1OC)NCC4)CCc1cc(OCCCN)ccc1-3`, the IC50 is > 1 µM.

Regarding `COc1ccc2c(c1)-c1nc3cc(OC)c(OC)c4c3c(c1CC2)CCN4`, the IC50 was > 1 µM.

With `COc1cc2nc3c(c4c2c(c1OC)N(C(C)=O)CC4)CCc1ccccc1-3`, the half-maximal inhibitory concentration (IC50) was > 1 µM.
